In patent publication US11993599B2, “Therapeutic compounds” (Genentech, Inc., priority 2021, dated 2024):

How the values were obtained:
[1] = target: T1, BRG1 (Homo sapiens, UniProt P51532); test: Immunofluorescence assay for BRG1 degradation in SW1573 cells; format: cell-based; conditions: 20 hours incubation; for DC50: immunofluorescence mean nuclear signal, read-out: BRG1 IF Degradation IC50; for Dmax: SW1573, 20 h, normalized to a known degrader control, read-out: BRG1 IF Degradation Sinf (%)
T1 construct: either BRM primary antibody (Cell signaling Cat #11966) or BRG primary antibody (Abcam, ab 110641); endogenous in cells; host or cells: SW1573
T1 sequence (P51532 whole entry): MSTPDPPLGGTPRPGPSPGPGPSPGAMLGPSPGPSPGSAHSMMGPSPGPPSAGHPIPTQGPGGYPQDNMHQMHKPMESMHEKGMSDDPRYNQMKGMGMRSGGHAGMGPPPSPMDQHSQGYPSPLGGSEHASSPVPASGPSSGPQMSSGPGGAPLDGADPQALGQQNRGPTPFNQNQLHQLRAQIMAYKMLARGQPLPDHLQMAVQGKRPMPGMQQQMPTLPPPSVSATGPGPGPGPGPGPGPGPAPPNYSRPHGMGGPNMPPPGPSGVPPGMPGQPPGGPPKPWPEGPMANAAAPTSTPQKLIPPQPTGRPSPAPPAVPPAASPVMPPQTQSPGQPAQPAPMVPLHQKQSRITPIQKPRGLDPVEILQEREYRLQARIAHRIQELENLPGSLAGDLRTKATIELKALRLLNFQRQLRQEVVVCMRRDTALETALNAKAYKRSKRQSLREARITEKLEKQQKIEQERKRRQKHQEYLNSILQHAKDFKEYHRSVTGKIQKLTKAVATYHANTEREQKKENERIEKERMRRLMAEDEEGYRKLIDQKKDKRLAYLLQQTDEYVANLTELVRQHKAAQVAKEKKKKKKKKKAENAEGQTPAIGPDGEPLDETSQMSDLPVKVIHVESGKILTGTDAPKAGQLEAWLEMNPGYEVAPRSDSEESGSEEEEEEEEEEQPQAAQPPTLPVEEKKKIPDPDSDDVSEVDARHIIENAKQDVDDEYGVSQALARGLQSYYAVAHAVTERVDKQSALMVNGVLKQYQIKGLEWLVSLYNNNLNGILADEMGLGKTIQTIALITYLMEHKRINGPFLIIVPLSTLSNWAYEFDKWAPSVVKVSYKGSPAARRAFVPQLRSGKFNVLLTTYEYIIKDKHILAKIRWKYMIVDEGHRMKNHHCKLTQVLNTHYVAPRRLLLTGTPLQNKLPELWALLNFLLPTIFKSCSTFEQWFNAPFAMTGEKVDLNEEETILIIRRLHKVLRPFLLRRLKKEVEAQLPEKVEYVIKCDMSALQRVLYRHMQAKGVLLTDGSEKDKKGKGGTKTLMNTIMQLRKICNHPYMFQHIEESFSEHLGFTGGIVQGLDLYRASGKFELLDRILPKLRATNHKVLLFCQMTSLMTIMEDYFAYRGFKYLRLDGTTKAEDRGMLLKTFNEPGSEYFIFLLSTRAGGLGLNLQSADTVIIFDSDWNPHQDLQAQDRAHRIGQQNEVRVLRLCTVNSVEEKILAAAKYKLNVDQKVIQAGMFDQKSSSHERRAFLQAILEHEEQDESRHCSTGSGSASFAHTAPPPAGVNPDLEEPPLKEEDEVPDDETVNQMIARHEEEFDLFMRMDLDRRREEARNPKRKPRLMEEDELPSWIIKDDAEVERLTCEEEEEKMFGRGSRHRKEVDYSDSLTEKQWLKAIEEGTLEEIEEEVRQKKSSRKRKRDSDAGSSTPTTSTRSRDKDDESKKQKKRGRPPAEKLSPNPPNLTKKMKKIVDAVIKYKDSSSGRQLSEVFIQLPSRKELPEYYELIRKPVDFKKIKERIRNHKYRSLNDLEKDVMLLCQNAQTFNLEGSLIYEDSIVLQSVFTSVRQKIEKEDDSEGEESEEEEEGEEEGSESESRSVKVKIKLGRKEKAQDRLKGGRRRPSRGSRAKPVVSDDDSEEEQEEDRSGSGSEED
Procedure, shortened: (§1)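 Cells seeded one day before dosing, exposed to compounds for 20 hours, then fixed, permeabilized, blocked and stained overnight at 4 °C with anti-BRM or anti-BRG1 antibody. Nuclear fluorescence intensity per cell, normalized to a degrader control, gave concentration-response curves fitted with a floating maximum.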

[2] = target: BRM (Homo sapiens, UniProt P51531); test: Immunofluorescence assay for BRM degradation in SW1573 cells; format: cell-based; design: treated overnight at 4° C. with either BRM primary antibody (Cell signaling Cat #11966) or BRG primary antibody; endogenous in cells; host or cells: SW1573; conditions: 20 hours incubation; for DC50: immunofluorescence mean nuclear signal, read-out: BRM IF Degradation IC50; for BRM IF Degradation Sinf (%): normalized to a known degrader control
BRM, sequence (P51531 whole entry): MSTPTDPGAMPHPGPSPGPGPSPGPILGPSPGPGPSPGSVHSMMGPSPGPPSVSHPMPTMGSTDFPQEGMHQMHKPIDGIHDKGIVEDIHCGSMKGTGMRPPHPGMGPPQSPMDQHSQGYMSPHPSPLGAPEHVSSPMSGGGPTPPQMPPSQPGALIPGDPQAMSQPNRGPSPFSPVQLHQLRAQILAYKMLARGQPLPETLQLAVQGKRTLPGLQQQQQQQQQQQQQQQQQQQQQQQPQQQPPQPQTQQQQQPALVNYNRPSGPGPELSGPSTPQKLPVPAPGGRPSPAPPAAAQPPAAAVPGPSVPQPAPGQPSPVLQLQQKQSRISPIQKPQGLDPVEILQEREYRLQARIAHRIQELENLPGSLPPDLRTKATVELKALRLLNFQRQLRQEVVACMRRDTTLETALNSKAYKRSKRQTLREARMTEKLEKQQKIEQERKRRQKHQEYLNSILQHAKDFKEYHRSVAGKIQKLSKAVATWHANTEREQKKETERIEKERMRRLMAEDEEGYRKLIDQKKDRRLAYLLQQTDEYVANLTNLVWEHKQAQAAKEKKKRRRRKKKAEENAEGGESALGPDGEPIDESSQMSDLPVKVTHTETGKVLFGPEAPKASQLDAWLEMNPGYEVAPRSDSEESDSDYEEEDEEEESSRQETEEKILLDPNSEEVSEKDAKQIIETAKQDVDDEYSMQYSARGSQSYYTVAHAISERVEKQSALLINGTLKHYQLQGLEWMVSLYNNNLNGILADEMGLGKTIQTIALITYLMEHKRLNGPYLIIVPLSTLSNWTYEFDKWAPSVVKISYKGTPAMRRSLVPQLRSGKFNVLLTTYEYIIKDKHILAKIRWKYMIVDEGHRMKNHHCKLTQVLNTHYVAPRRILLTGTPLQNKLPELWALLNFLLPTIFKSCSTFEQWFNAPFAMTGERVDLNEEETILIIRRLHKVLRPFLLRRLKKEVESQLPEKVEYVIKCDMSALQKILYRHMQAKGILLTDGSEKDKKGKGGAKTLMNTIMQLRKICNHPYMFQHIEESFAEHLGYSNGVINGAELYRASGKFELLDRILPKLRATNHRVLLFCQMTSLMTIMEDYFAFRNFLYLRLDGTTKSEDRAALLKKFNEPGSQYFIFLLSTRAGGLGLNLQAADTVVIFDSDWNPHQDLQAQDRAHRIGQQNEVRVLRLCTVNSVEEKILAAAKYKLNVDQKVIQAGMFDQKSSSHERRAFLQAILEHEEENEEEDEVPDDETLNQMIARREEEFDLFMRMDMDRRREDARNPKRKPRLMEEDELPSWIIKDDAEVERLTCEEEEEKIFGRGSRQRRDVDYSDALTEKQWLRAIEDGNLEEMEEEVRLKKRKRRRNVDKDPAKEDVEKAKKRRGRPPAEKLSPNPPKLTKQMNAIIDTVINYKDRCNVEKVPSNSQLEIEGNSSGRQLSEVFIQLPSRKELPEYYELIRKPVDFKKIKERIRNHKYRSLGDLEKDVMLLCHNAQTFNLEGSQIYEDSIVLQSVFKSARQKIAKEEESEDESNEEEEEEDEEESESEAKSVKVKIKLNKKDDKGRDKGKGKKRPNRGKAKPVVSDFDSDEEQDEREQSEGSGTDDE
Procedure, shortened: as §1

| Compound | DC50 [1] [nM] | Dmax [1] [%] | DC50 [2] [nM] | BRM IF Degradation Sinf (%) [2] |
| --- | --- | --- | --- | --- |
| Nc1nnc(-c2ccccc2O)cc1N1CC2CCC(C1)N2c1ccnc(C#CCN2CCCC(CO)C2)c1 (centres unmarked) [Compound 134, 2-[6-amino-5-[8-[2-[3-[3-(hydroxymethyl)-1-piperidyl]prop-1-ynyl]-4-pyridyl]-3,8-diazabicyclo[3.2.1]octan-3-yl]pyridazin-3-yl]phenol] | 10 to 100 | 30 to 70 | 10 to 100 | E (E indicates −30%-−70%) |
| CC1(C)CN(CC#Cc2cc(N3C4CCC3CN(c3cc(-c5ccccc5O)nnc3N)C4)ccn2)C1 [Compound 135, 2-[6-amino-5-[8-[2-[3-(3,3-dimethylazetidin-1-yl)prop-1-ynyl]-4-pyridyl]-3,8-diazabicyclo[3.2.1]octan-3-yl]pyridazin-3-yl]phenol] | < 10 | 30 to 70 | < 10 | E (E indicates −30%-−70%) |
| Nc1nnc(-c2ccccc2O)cc1N1CC2CCC(C1)N2c1ccnc(C#CCN2CCC3(CC2)CC3)c1 [Compound 136, 2-(5-(8-(2-(3-(6-azaspiro[2.5]octan-6-yl)prop-1-yn-1-yl)pyridin-4-yl)-3,8-diazabicyclo[3.2.1]octan-3-yl)-6-aminopyridazin-3-yl)phenol] | < 10 | 30 to 70 | < 10 | E (E indicates −30%-−70%) |
| Nc1nnc(-c2ccccc2O)cc1N1CC2CCC(C1)N2c1ccnc(C#CCN2CC3CC3(CO)C2)c1 (centres unmarked) [Compound 137, 2-[6-amino-5-[8-[2-[3-[1-(hydroxymethyl)-3-azabicyclo[3.1.0]hexan-3-yl]prop-1-ynyl]-4-pyridyl]-3,8-diazabicyclo[3.2.1]octan-3-yl]pyridazin-3-yl]phenol] | < 10 | 30 to 70 | < 10 | E (E indicates −30%-−70%) |
| CC1CCN(CC#Cc2cc(N3C4CCC3CN(c3cc(-c5ccccc5O)nnc3N)C4)ccn2)CC1 [Compound 138, 2-[6-amino-5-[8-[2-[3-(4-methyl-1-piperidyl)prop-1-ynyl]-4-pyridyl]-3,8-diazabicyclo[3.2.1]octan-3-yl]pyridazin-3-yl]phenol] | < 10 | 30 to 70 | 10 to 100 | E (E indicates −30%-−70%) |
| N#CC1CCN(CC#Cc2cc(N3C4CCC3CN(c3cc(-c5ccccc5O)nnc3N)C4)ccn2)CC1 [Compound 139, 1-[3-[4-[3-[3-amino-6-(2-hydroxyphenyl)pyridazin-4-yl]-3,8-diazabicyclo[3.2.1]octan-8-yl]-2-pyridyl]prop-2-ynyl]piperidine-4-carbonitrile] | 10 to 100 | 0 to 30 | < 10 | E (E indicates −30%-−70%) |
| Nc1nnc(-c2ccccc2O)cc1N1CC2CCC(C1)N2c1ccnc(C#CCN2CCC3(CCOC3)C2)c1 (centres unmarked) [Compound 140, 2-[6-amino-5-[8-[2-[3-(2-oxa-7-azaspiro[4.4]nonan-7-yl)prop-1-ynyl]-4-pyridyl]-3,8-diazabicyclo[3.2.1]octan-3-yl]pyridazin-3-yl]phenol] | < 10 | 30 to 70 | < 10 | F (F indicates −71%-−120%) |
| Nc1nnc(-c2ccccc2O)cc1N1CC2CCC(C1)N2c1ccnc(C#CCN2CC3CCC2C3)c1 (centres unmarked) [Compound 141, 2-[6-amino-5-[8-[2-[3-(2-azabicyclo[2.2.1]heptan-2-yl)prop-1-ynyl]-4-pyridyl]-3,8-diazabicyclo[3.2.1]octan-3-yl]pyridazin-3-yl]phenol] | < 10 | 30 to 70 | < 10 | E (E indicates −30%-−70%) |
| Nc1nnc(-c2ccccc2O)cc1N1CC2CCC(C1)N2c1ccnc(C#CCN2CC(O)C2)c1 [Compound 142, 1-[3-[4-[3-[3-amino-6-(2-hydroxyphenyl)pyridazin-4-yl]-3,8-diazabicyclo[3.2.1]octan-8-yl]-2-pyridyl]prop-2-ynyl]azetidin-3-ol] | 10 to 100 | 30 to 70 | 10 to 100 | E (E indicates −30%-−70%) |
| Nc1nnc(-c2ccccc2O)cc1N1CC2CCC(C1)N2c1ccnc(C#CCN2CC3CC2CC3(F)F)c1 (centres unmarked) [Compound 143, 2-[6-amino-5-[8-[2-[3-(5,5-difluoro-2-azabicyclo[2.2.1]heptan-2-yl)prop-1-ynyl]-4-pyridyl]-3,8-diazabicyclo[3.2.1]octan-3-yl]pyridazin-3-yl]phenol] | < 10 | 0 to 30 | < 10 | E (E indicates −30%-−70%) |
| Nc1nnc(-c2ccccc2O)cc1N1CC2CCC(C1)N2c1ccnc(C#CCN2C3COCC2CC(F)C3)c1 (centres unmarked) [Compound 144, 2-[6-amino-5-[8-[2-[3-(7-fluoro-3-oxa-9-azabicyclo[3.3.1]nonan-9-yl)prop-1-ynyl]-4-pyridyl]-3,8-diazabicyclo[3.2.1]octan-3-yl]pyridazin-3-yl]phenol] | 10 to 100 | 0 to 30 | > 100 | E (E indicates −30%-−70%) |
| Nc1nnc(-c2ccccc2O)cc1N1CC2CCC(C1)N2c1ccnc(C#CCN2CCC3OCCC3C2)c1 (centres unmarked) [Compound 145, 2-[5-[8-[2-[3-(3,3a,4,6,7,7a-hexahydro-2H-furo[3,2-c]pyridin-5-yl)prop-1-ynyl]-4-pyridyl]-3,8-diazabicyclo[3.2.1]octan-3-yl]-6-amino-pyridazin-3-yl]phenol] | < 10 | 0 to 30 | < 10 | E (E indicates −30%-−70%) |
| Nc1nnc(-c2ccccc2O)cc1N1CC2CCC(C1)N2c1ccnc(C#CCN2CCC3CNCC32)c1 (centres unmarked) [Compound 146, 2-[5-[8-[2-[3-(3,3a,4,5,6,6a-hexahydro-2H-pyrrolo[3,4-b]pyrrol-1-yl)prop-1-ynyl]-4-pyridyl]-3,8-diazabicyclo[3.2.1]octan-3-yl]-6-amino-pyridazin-3-yl]phenol] | > 100 | 30 to 70 | > 100 | E (E indicates −30%-−70%) |
| Nc1nnc(-c2ccccc2O)cc1N1CC2CCC(C1)N2c1ccnc(C#CCN2CCOC3CCNCC32)c1 (centres unmarked) [Compound 147, 2-[5-[8-[2-[3-(2,3,4a,5,6,7,8,8a-octahydropyrido[4,3-b][l,4]oxazin-4-yl)prop-1-ynyl]-4-pyridyl]-3,8-diazabicyclo[3.2.1]octan-3-yl]-6-amino-pyridazin-3-yl]phenol] | > 100 | 30 to 70 | > 100 | E (E indicates −30%-−70%) |
| CNC(=O)C12CC(CN1CC#Cc1cc(N3C4CCC3CN(c3cc(-c5ccccc5O)nnc3N)C4)ccn1)C2 [Compound 148, 2-[3-[4-[3-[3-amino-6-(2-hydroxyphenyl)pyridazin-4-yl]-3,8-diazabicyclo[3.2.1]octan-8-yl]-2-pyridyl]prop-2-ynyl]-N-methyl-2-azabicyclo[2.1.1]hexane-1-carboxamide] | > 100 | 30 to 70 | 10 to 100 | E (E indicates −30%-−70%) |
| Nc1nnc(-c2ccccc2O)cc1N1CC2CCC(C1)N2c1ccnc(C#CCN2Cc3cn[nH]c3C2)c1 [Compound 149, 2-[6-amino-5-[8-[2-[3-(4,6-dihydro-1H-pyrrolo[3,4-c]pyrazol-5-yl)prop-1-ynyl]-4-pyridyl]-3,8-diazabicyclo[3.2.1]octan-3-yl]pyridazin-3-yl]phenol] | 10 to 100 | 0 to 30 | 10 to 100 | E (E indicates −30%-−70%) |
| Nc1nnc(-c2ccccc2O)cc1N1CC2CCC(C1)N2c1ccnc(C#CCN2CC(C3CC3)C2)c1 [Compound 150, 2-[6-amino-5-[8-[2-[3-(3-cyclopropylazetidin-1-yl)prop-1-ynyl]-4-pyridyl]-3,8-diazabicyclo[3.2.1]octan-3-yl]pyridazin-3-yl]phenol] | < 10 | 30 to 70 | < 10 | F (F indicates −71%-−120%) |
| Nc1nnc(-c2ccccc2O)cc1N1CC2CCC(C1)N2c1ccnc(C#CCN2CC3(C2)CC3(F)F)c1 [Compound 151, 2-[6-amino-5-[8-[2-[3-(2,2-difluoro-5-azaspiro[2.3]hexan-5-yl)prop-1-ynyl]-4-pyridyl]-3,8-diazabicyclo[3.2.1]octan-3-yl]pyridazin-3-yl]phenol] | < 10 | 0 to 30 | < 10 | E (E indicates −30%-−70%) |
| N#CCC1CN(CC#Cc2cc(N3C4CCC3CN(c3cc(-c5ccccc5O)nnc3N)C4)ccn2)C1 [Compound 152, 2-[1-[3-[4-[3-[3-amino-6-(2-hydroxyphenyl)pyridazin-4-yl]-3,8-diazabicyclo[3.2.1]octan-8-yl]-2-pyridyl]prop-2-ynyl]azetidin-3-yl]acetonitrile] | < 10 | 30 to 70 | < 10 | E (E indicates −30%-−70%) |
| Nc1nnc(-c2ccccc2O)cc1N1CC2CCC(C1)N2c1ccnc(C#CCN2CCCCC23CC3)c1 [Compound 153, 2-[6-amino-5-[8-[2-[3-(4-azaspiro[2.5]octan-4-yl)prop-1-ynyl]-4-pyridyl]-3,8-diazabicyclo[3.2.1]octan-3-yl]pyridazin-3-yl]phenol] | < 10 | 0 to 30 | < 10 | E (E indicates −30%-−70%) |
